{
  "source": "paper PMC5099547",
  "about": "(British Journal of Clinical Pharmacology, 2016)",
  "key": {"[1]": {"test": "Safety and tolerability, all three studies", "assay_type": "in vivo, human"}, "[2]": {"conditions": "cited from earlier work"}, "[3]": {"conditions": "cited from earlier work", "remark": "listed apart in the source"}, "P‐gp": {"test_system": "P‐gp", "conditions": "Caco‐2 cell monolayers; transport strongly hindered by P‐gp inhibitors; cited from earlier work"}, "OATP1B1": {"test_system": "OATP1B1", "conditions": "cited from earlier work"}, "OAT1": {"test_system": "OAT1", "conditions": "cited from earlier work"}, "OAT3": {"test_system": "OAT3", "conditions": "cited from earlier work"}, "OCT2": {"test_system": "OCT2", "conditions": "cited from earlier work"}, "[4]": {"test": "Edoxaban-ketoconazole drug interaction study, plasma pharmacokinetics"}, "[5]": {"test": "Edoxaban-erythromycin drug interaction study, plasma pharmacokinetics"}, "[6]": {"test": "Edoxaban-cyclosporine drug interaction study, plasma pharmacokinetics"}, "CYP3A4": {"test_system": "CYP3A4", "conditions": "cited from earlier work"}, "[7]": {"conditions": "edoxaban + ketoconazole vs alone, reduced"}, "[8]": {"conditions": "edoxaban + erythromycin vs edoxaban alone"}, "[9]": {"conditions": "erythromycin study, edoxaban 60 mg alone, mean ± SD, n = 32"}, "[10]": {"conditions": "edoxaban + cyclosporine vs edoxaban alone"}, "[11]": {"conditions": "edoxaban + cyclosporine vs edoxaban alone, based on geometric LSM ratios"}},
  "note": "Marks after values point to notes of the source that are not given here.",
  "data": [
    {"smiles": "CN1CCc2nc(C(=O)N[C@@H]3C[C@@H](C(=O)N(C)C)CC[C@@H]3NC(=O)C(=O)Nc3ccc(Cl)cn3)sc2C1", "note": "[Edoxaban]", "values": [
      {"measurement": "serious adverse events", "setting": "[1]", "result": "No serious adverse events"},
      {"measurement": "tolerability", "setting": "[1]; alone or in combination with ketoconazole, erythromycin, or cyclosporine", "result": "well tolerated"},
      {"measurement": "metabolism via CYP3A4, share of total clearance", "setting": "[2]", "result": "< 4", "unit": "%"},
      {"measurement": "oral (absolute) bioavailability", "setting": "[2]", "result": 62, "unit": "%"},
      {"measurement": "increase in total exposure with quinidine", "setting": "[3]; intravenous dosing of edoxaban", "result": "about 35%"},
      {"measurement": "increase in exposure with quinidine", "setting": "[3]; oral edoxaban", "result": "about 68%"},
      {"measurement": "transport via P‐gp", "setting": "P‐gp", "result": "transported via P‐gp"},
      {"measurement": "substrate of OATP1B1", "setting": "OATP1B1", "result": "not a substrate"},
      {"measurement": "substrate of OAT1", "setting": "OAT1", "result": "not a substrate"},
      {"measurement": "substrate of OAT3", "setting": "OAT3", "result": "not a substrate"},
      {"measurement": "substrate of OCT2", "setting": "OCT2", "result": "not a substrate"},
      {"measurement": "change in clearance", "setting": "[4]; [7]", "result": "approximately 46%"},
      {"measurement": "change in volume of distribution", "setting": "[4]; [7]", "result": "approximately 46%"},
      {"measurement": "increase in total exposure (AUC)", "setting": "[4]; edoxaban + ketoconazole vs edoxaban alone", "result": 87, "unit": "%"},
      {"measurement": "half-life", "setting": "[4]; human, in vivo", "result": "~11.5", "unit": "h"},
      {"measurement": "AUC(0-inf)", "setting": "[4]; human, in vivo, 60 mg", "result": "1650 ± 412", "unit": "ng·h/mL"},
      {"measurement": "half-life", "setting": "[4]; human, in vivo, 60 mg", "result": "11.9 ± 4.11", "unit": "h"},
      {"measurement": "Cmax", "setting": "[4]; human, in vivo, po, 60 mg", "result": "245 ± 86.9", "unit": "ng/mL"},
      {"measurement": "decrease in apparent volume of distribution", "setting": "[5]; [8]", "result": 63, "unit": "%"},
      {"measurement": "decrease in total apparent clearance", "setting": "[5]; [8]", "result": "about 47%"},
      {"measurement": "increase in total exposure (AUC)", "setting": "[5]; [8]", "result": 85, "unit": "%"},
      {"measurement": "AUC (extrapolated to infinity)", "setting": "[5]; [9]", "result": "1740 ± 443.7 ^b ng h ml^–1"},
      {"measurement": "t1/2", "setting": "[5]; [9]", "result": "10.24 ± 3.71 ^b h"},
      {"measurement": "Cmax", "setting": "[5]; human, in vivo, po, 60 mg", "result": "259 ± 100", "unit": "ng/mL"},
      {"measurement": "increase in peak exposure", "setting": "[6]; [10]", "result": "approximately 1.7 fold"},
      {"measurement": "increase in total exposure", "setting": "[6]; [10]", "result": "approximately 1.7 fold"},
      {"measurement": "increase in peak exposure (Cmax)", "setting": "[6]; [11]", "result": 74, "unit": "%"},
      {"measurement": "increase in total exposure (AUC)", "setting": "[6]; [11]", "result": 73, "unit": "%"},
      {"measurement": "AUC(0-inf)", "setting": "[6]; human, in vivo, 60 mg", "result": "1830 ± 363", "unit": "ng·h/mL"},
      {"measurement": "Tmax", "setting": "[6]; human, in vivo, 60 mg", "result": 1.5, "unit": "h"},
      {"measurement": "half-life", "setting": "[6]; human, in vivo, 60 mg", "result": "14.5 ± 5.34", "unit": "h"}
    ]},
    {"smiles": "CC(=O)N1CCN(c2ccc(OCC3COC(Cn4ccnc4)(c4ccc(Cl)cc4Cl)O3)cc2)CC1", "note": "(centres unmarked) [ketoconazole]", "values": [
      {"measurement": "degree of CYP3A4 inhibitory activity", "setting": "CYP3A4", "result": "strong"}
    ]}
  ]
}
